≈ marks a conversion by molar mass, not a printed value. Where two headings read alike, the source gives them in different places.
Legend:
[1] = test system: CEM-SS cells; experiment: Compound cytotoxicity (cell viability in the absence of virus, MTS); type: cell-based; settings: read-out: TC50 (the source's name)
Experimental: Similarly, compound cytotoxicity is measured as the % reduction in cell viability resulting from incubation of the compound with the cells (in the absence of virus). The greater the reduction in cell viability, the greater the cytotoxicity of the compound. […] Macroscopic observation of the cells in each well of the microtiter plate confirmed the cytotoxicity results obtained following staining of the cells with the MTS metabolic dye.

[2] = test system: HIV-1RF; experiment: HIV-1 cytoprotection assay; type: cell-based
Experimental: ICBG plant samples were tested using an HIV-1 cytoprotection assay. This assay is based on the premise that HIV-1RF is cytopathic and kills CEM-SS cells as it replicates in the culture. Compounds that inhibit HIV-1 replication are therefore able to reduce the amount of viral cytopathic effect that occurs in the culture. As a result, compound activity is measured by determining the amount of cell viability remaining in the cultures following the six day incubation period. The % reduction in viral cytopathic effect is a direct measure of compound activity. The greater the % reduction in viral cytopathic effect, the greater the antiviral activity of the compound. […] Macroscopic observation of the cells in each well of the microtiter plate confirmed the cytotoxicity results obtained following staining of the cells with the MTS metabolic dye.

[3] = test system: MRSA; settings: cited from earlier work

IC50 ([2]; HIV-1RF in CEM-SS cells, six day incubation) [nM]	SMILES	CC50 [1] [nM]	Antiviral activity (comments) ([2]; HIV-1RF in CEM-SS cells, at concentrations tested)	AI (Antiviral Index) ([2]; TC50 / IC50)	MIC ([3]; MRSA strain 1199-B) [µg/mL]	MIC ([3]; MRSA strain XU212) [µg/mL]
< 2	Cc1cn([C@H]2C[C@H](N=[N+]=[N-])[C@@H](CO)O2)c(=O)[nH]c1=O [AZT]	> 500	expected level of antiviral activity	>320	–	–
–	CCn1cc(C(=O)O)c(=O)c2cc(F)c(N3CCNCC3)cc21 [Norfloxacin]	–	–	–	64 (≈ 200 µM)	8 (≈ 25.1 µM)
–	CC[C@H]1OC(=O)[C@H](C)[C@@H](O[C@H]2C[C@@](C)(OC)[C@@H](O)[C@H](C)O2)[C@H](C)[C@@H](O[C@@H]2O[C@H](C)C[C@H](N(C)C)[C@H]2O)[C@](C)(O)C[C@@H](C)C(=O)[C@H](C)[C@@H](O)[C@]1(C)O [Erythromycin]	–	–	–	2 (≈ 2.73 µM)	4096 (≈ 5580 µM)

Reference: patent publication US20050266105A1, “Compositions comprising natural agents for the treatment of HIV-associated opportunistic infections and complications and methods for preparing and using compositions comprising natural agents” (priority 2004, published 2005)
